From the supplement of paper PMC10307832

Experiments:
Test in all cases: relative viability (nuclei count vs DMSO), 5 days (fraction); higher = more cells survive
Carfilzomib + Foretinib = compound: CC(C)C[C@H](NC(=O)[C@H](CCc1ccccc1)NC(=O)CN1CCOCC1)C(=O)N[C@@H](Cc1ccccc1)C(=O)N[C@@H](CC(C)C)C(=O)[C@@]1(C)CO1 [Carfilzomib] + COc1cc2c(Oc3ccc(NC(=O)C4(C(=O)Nc5ccc(F)cc5)CC4)cc3F)ccnc2cc1OCCCN1CCOCC1 [Foretinib] (partner 0.25 µM)
Method in brief: (§1)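 The day after seeding in 1536-well plates, lung cancer cell lines were treated by pin tool with a single drug, or with a fixed anchor-drug dose together with five library-drug doses (not always all listed) in √10 steps. After 5 days, a combined fix-and-stain solution (final 0.05% Triton X-100, 1% formaldehyde, 1 ug/ml Hoechst) was added. Nuclei counted on 4× images gave relative viability as treated counts over vehicle counts, reported as the median of duplicate plates.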

Carfilzomib + Pictilisib = compound: CC(C)C[C@H](NC(=O)[C@H](CCc1ccccc1)NC(=O)CN1CCOCC1)C(=O)N[C@@H](Cc1ccccc1)C(=O)N[C@@H](CC(C)C)C(=O)[C@@]1(C)CO1 [Carfilzomib] + CS(=O)(=O)N1CCN(Cc2cc3nc(-c4cccc5[nH]ncc45)nc(N4CCOCC4)c3s2)CC1 [Pictilisib] (partner 1 µM)
Method in brief: as §1

Crizotinib + Navitoclax = compound: C[C@@H](Oc1cc(-c2cnn(C3CCNCC3)c2)cnc1N)c1c(Cl)ccc(F)c1Cl [Crizotinib] + CC1(C)CCC(c2ccc(Cl)cc2)=C(CN2CCN(c3ccc(C(=O)NS(=O)(=O)c4ccc(N[C@H](CCN5CCOCC5)CSc5ccccc5)c(S(=O)(=O)C(F)(F)F)c4)cc3)CC2)C1 [Navitoclax] (partner 0.5 µM)
Method in brief: as §1

Crizotinib + Foretinib = compound: C[C@@H](Oc1cc(-c2cnn(C3CCNCC3)c2)cnc1N)c1c(Cl)ccc(F)c1Cl [Crizotinib] + COc1cc2c(Oc3ccc(NC(=O)C4(C(=O)Nc5ccc(F)cc5)CC4)cc3F)ccnc2cc1OCCCN1CCOCC1 [Foretinib] (partner 0.25 µM)
Method in brief: as §1

| Cell Line | relative viability (Carfilzomib + Foretinib; first compound 0.001 µM) | relative viability (Carfilzomib + Foretinib; first compound 0.003162 µM) | relative viability (Carfilzomib + Foretinib; first compound 0.01 µM) | relative viability (Carfilzomib + Foretinib; first compound 0.03162 µM) | relative viability (Carfilzomib + Foretinib; first compound 0.1 µM) | relative viability (Carfilzomib + Pictilisib; first compound 0.001 µM) | relative viability (Carfilzomib + Pictilisib; first compound 0.003162 µM) | relative viability (Carfilzomib + Pictilisib; first compound 0.01 µM) | relative viability (Carfilzomib + Pictilisib; first compound 0.03162 µM) | relative viability (Carfilzomib + Pictilisib; first compound 0.1 µM) | relative viability (Crizotinib + Navitoclax; first compound 0.01 µM) | relative viability (Crizotinib + Navitoclax; first compound 0.03162 µM) | relative viability (Crizotinib + Navitoclax; first compound 0.1 µM) | relative viability (Crizotinib + Navitoclax; first compound 0.3162 µM) | relative viability (Crizotinib + Navitoclax; first compound 1 µM) | relative viability (Crizotinib + Foretinib; first compound 0.01 µM) | relative viability (Crizotinib + Foretinib; first compound 0.03162 µM) | relative viability (Crizotinib + Foretinib; first compound 0.1 µM) | relative viability (Crizotinib + Foretinib; first compound 1 µM) | relative viability (Crizotinib + Foretinib; first compound 0.3162 µM) |
| --- | --- | --- | --- | --- | --- | --- | --- | --- | --- | --- | --- | --- | --- | --- | --- | --- | --- | --- | --- | --- |
| NCI-H2087 | 1.03 | 1.15 | 0.693 | 0.0563 | 0.0605 | 0.802 | 0.874 | 0.552 | 0.0964 | 0.18 | 0.828 | 0.996 | 1.09 | 0.888 | 1.19 | 1.12 | 1.12 | 1.03 | 1.24 |  |
| NCI-H2126 | 1.2 | 1.3 | 1.2 | 1.12 | 0.48 | 0.557 | 0.477 | 0.512 | 0.555 | 0.446 | 0.834 | 0.826 | 0.842 | 0.759 | 0.832 | 1.03 | 1.18 | 1.12 | 1.18 | 1.1 |
| NCI-H2170 | 1.05 | 1.02 | 1.06 | 1.06 | 0.397 | 0.317 | 0.349 | 0.327 | 0.283 | 0.163 | 0.536 | 0.603 | 0.574 | 0.468 | 0.632 | 0.965 | 0.991 | 0.999 | 1.01 | 1.02 |
| NCI-H2228 | 0.902 | 0.883 | 0.633 | 0.0979 | 0.096 | 0.465 | 0.468 | 0.206 | 0.102 | 0.115 | 1.01 | 1.2 | 0.648 | 0.996 | 0.409 | 0.872 | 0.997 | 0.699 | 0.434 | 0.81 |
| NCI-H2347 | 0.958 | 0.909 | 1.43 | 0.698 | 0.181 | 0.662 | 0.623 | 0.67 | 0.549 | 0.318 | 0.682 | 0.734 | 0.849 | 0.799 | 0.852 | 0.689 | 0.918 | 1.03 | 1.06 | 0.656 |
| NCI-H2405 |  | 1.06 | 1.07 | 1.07 | 0.305 |  | 0.583 | 0.521 | 0.321 | 0.174 | 0.816 | 0.815 | 0.79 | 0.858 | 0.862 | 1.02 | 1.06 | 1.05 | 1.06 | 1.09 |
| NCI-H3122 | 0.948 | 0.992 | 0.92 | 0.781 | 0.318 | 0.585 | 0.615 | 0.6 | 0.602 | 0.34 | 0.99 | 0.993 | 1.04 | 1.02 |  | 0.94 | 0.925 | 0.978 | 0.924 | 0.873 |
| PC-3 [JPC-3] | 1.02 | 1.01 | 1.05 | 0.889 | 0.279 | 0.782 | 0.747 | 0.677 | 0.707 | 0.259 | 0.809 | 0.807 | 0.815 | 0.684 | 0.858 | 0.969 | 1.05 | 1.01 | 0.986 | 0.992 |
| PC-14 | 0.979 | 0.958 | 0.996 | 0.826 | 0.081 | 0.55 | 0.816 | 0.364 | 0.0334 | 0.0646 | 0.983 | 0.96 | 0.991 | 1.04 | 0.998 | 0.894 | 1.01 |  | 0.999 | 0.926 |
| RERF-LC-KJ | 0.873 | 0.86 | 0.886 | 0.794 | 0.409 | 0.528 | 0.469 | 0.675 | 0.265 | 0.149 | 1.18 | 0.767 | 1.13 | 0.682 | 1.02 | 0.824 | 0.896 | 1.33 | 0.887 | 0.817 |
| SK-LU-1 | 0.838 | 0.857 | 0.919 | 0.116 | 0.124 | 0.518 | 0.653 | 0.541 | 0.201 | 0.15 | 0.829 | 0.851 | 0.887 | 0.938 | 0.806 | 0.822 | 0.778 | 0.787 | 0.848 | 0.902 |
| SK-MES-1 | 0.851 | 0.954 | 0.918 | 0.97 | 0.283 | 0.338 | 0.419 | 0.337 | 0.283 | 0.174 | 1.2 | 1.29 | 1.25 |  | 1.2 | 0.875 | 0.919 | 0.941 | 0.843 | 0.798 |
| SW 1573 | 0.934 | 1.27 | 0.884 | 0.725 | 0.0812 | 0.517 | 0.512 | 0.404 | 0.277 | 0.0513 | 0.683 |  | 0.97 | 0.945 | 0.932 | 0.85 | 0.762 | 0.905 | 0.98 | 0.77 |
| UMC-11 | 0.996 | 1.05 | 1.06 | 0.944 | 0.299 | 0.608 | 0.956 | 0.778 | 0.648 | 0.336 | 0.285 | 0.308 | 0.306 | 0.282 | 0.365 | 1.01 | 1.04 | 1.07 | 1.02 | 1.04 |
